{"source": "paper PMC7827406", "about": "“Structure–Activity Relationship (SAR) Study of Spautin-1 to Entail the Discovery of Novel NEK4 Inhibitors” (International Journal of Molecular Sciences, 2021)", "test_in_all_cases": "biochemical", "design_in_all_cases": "Eurofins KinaseProfiler full panel at Km ATP, residual kinase activity (%) relative to DMSO", "key": {"HIPK2(h)": {"molecular_target": "HIPK2(h) (Homo sapiens, UniProt Q9H2X6)", "sequence (Q9H2X6 whole entry)": "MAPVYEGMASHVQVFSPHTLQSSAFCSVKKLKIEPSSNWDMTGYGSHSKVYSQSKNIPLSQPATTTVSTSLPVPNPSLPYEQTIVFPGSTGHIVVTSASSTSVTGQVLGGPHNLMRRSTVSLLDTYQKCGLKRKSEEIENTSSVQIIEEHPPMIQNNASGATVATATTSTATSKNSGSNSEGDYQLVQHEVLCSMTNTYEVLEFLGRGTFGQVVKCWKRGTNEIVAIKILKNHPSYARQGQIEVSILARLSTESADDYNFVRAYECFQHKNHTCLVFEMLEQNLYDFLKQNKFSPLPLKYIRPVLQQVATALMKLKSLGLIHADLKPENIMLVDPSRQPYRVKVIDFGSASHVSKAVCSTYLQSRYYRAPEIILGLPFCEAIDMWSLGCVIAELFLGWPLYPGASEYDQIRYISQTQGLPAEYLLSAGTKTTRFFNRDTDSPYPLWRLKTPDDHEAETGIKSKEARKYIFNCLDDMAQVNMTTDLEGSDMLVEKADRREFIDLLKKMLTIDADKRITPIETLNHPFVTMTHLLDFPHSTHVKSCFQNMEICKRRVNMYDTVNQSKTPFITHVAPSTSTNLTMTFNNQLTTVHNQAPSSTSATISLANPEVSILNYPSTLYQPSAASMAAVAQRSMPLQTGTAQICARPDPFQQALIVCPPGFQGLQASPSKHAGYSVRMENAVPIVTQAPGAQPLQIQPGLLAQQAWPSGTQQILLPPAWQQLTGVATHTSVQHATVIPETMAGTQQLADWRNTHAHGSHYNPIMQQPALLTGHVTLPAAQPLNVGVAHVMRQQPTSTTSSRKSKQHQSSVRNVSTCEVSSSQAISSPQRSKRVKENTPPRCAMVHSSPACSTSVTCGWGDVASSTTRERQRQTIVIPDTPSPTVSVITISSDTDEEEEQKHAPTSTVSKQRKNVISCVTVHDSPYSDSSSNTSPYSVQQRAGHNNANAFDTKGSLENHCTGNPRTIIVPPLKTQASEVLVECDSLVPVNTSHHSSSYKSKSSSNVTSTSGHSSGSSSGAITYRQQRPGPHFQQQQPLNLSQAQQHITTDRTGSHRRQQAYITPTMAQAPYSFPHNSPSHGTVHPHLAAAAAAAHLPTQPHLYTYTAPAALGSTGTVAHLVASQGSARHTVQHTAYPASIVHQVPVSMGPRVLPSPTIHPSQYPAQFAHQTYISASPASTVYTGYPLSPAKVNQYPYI", "procedure,_shortened": "(§1)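 Radiometric kinase activity assays were run with ATP at Km and compounds at 10 µM, and remaining activity (%) was reported. A separate competitive binding screen measured DNA-tagged kinase displaced from immobilized active-site ligands by qPCR, giving percent kinase still bound at 10 µM compound in DMSO.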"}, "ALK6(h)": {"molecular_target": "T1, ALK6(h) (Homo sapiens, UniProt O00238)", "T1 construct": "gene BMPR1B", "T1 sequence (O00238 whole entry)": "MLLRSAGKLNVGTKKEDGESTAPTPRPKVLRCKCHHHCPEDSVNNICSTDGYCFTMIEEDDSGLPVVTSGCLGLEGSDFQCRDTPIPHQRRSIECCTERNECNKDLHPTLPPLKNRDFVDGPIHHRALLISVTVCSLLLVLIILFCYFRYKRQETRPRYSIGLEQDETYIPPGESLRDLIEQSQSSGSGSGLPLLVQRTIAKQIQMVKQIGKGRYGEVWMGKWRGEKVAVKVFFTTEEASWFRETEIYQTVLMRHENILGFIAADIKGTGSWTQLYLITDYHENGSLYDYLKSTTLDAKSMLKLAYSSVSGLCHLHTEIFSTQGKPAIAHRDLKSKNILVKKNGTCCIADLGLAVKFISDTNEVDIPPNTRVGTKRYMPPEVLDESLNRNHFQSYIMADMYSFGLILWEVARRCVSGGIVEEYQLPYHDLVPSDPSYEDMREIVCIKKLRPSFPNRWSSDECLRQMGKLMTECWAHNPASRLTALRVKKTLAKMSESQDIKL", "procedure,_shortened": "as §1"}, "PRAK(h)": {"molecular_target": "T2, PRAK(h) (Homo sapiens, UniProt Q8IW41)", "T2 construct": "gene MAPKAPK5", "T2 sequence (Q8IW41 1-473)": "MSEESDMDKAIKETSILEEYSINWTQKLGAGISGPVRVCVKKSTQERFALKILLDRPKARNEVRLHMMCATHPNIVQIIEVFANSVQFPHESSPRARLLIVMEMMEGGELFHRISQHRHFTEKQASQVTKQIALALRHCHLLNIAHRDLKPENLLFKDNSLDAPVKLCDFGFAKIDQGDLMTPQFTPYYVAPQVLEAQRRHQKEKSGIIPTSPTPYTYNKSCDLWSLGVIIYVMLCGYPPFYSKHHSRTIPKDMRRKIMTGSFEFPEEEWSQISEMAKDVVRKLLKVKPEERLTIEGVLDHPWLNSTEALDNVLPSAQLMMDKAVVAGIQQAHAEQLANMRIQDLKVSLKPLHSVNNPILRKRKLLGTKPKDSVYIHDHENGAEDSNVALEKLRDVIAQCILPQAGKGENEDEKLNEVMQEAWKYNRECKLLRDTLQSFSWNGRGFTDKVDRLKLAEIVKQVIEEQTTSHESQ", "procedure,_shortened": "as §1"}, "HIPK4(h)": {"molecular_target": "T3, HIPK4(h) (Homo sapiens, UniProt Q8NE63)", "T3 sequence (Q8NE63 1-616)": "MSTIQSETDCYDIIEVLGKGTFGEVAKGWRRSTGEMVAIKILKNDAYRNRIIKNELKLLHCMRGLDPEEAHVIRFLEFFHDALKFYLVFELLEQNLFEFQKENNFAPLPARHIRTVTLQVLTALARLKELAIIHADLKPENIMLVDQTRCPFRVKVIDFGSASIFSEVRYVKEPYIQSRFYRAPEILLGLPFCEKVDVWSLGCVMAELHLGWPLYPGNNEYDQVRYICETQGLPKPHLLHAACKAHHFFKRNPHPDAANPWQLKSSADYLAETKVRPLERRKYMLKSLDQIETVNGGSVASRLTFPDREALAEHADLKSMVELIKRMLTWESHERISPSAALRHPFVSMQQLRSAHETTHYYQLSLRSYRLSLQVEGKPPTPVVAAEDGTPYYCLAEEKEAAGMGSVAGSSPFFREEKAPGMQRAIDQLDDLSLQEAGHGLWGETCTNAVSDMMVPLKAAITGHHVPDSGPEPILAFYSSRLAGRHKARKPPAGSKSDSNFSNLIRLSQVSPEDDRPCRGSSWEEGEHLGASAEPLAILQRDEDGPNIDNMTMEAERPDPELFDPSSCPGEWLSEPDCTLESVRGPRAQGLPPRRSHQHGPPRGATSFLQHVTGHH", "procedure,_shortened": "as §1"}, "SAPK3(h)": {"molecular_target": "T4, SAPK3(h) (Homo sapiens, UniProt P53778)", "T4 construct": "gene MAPK12", "T4 sequence (P53778 1-367)": "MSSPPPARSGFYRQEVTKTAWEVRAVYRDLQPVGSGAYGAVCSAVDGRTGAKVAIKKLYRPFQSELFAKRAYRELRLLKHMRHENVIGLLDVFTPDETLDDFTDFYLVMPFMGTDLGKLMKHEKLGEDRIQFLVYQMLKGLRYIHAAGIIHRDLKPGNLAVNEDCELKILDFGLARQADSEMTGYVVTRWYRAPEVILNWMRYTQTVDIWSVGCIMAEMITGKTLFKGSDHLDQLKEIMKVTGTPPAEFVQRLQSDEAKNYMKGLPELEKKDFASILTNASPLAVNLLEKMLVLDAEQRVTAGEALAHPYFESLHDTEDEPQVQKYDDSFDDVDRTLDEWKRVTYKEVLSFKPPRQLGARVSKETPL", "procedure,_shortened": "as §1"}, "TGFBR1(h)": {"molecular_target": "T5, TGFBR1(h) (Homo sapiens, UniProt P36897)", "T5 sequence (P36897 1-503)": "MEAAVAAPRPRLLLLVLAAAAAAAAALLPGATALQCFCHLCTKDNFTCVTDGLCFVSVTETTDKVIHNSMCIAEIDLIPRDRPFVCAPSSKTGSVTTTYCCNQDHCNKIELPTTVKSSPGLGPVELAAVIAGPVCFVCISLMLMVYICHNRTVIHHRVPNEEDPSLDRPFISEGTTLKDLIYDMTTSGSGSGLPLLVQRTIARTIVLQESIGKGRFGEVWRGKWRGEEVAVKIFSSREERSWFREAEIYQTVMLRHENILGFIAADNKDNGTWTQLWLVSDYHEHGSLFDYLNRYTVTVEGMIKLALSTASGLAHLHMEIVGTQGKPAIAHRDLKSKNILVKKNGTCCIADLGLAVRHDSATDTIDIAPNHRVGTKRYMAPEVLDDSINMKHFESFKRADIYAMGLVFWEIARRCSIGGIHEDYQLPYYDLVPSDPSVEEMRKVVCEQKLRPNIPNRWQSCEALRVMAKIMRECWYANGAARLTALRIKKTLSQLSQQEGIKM", "procedure,_shortened": "as §1"}, "DAPK2(h)": {"molecular_target": "DAPK2(h) (Homo sapiens, UniProt Q9UIK4)", "sequence (Q9UIK4 whole entry)": "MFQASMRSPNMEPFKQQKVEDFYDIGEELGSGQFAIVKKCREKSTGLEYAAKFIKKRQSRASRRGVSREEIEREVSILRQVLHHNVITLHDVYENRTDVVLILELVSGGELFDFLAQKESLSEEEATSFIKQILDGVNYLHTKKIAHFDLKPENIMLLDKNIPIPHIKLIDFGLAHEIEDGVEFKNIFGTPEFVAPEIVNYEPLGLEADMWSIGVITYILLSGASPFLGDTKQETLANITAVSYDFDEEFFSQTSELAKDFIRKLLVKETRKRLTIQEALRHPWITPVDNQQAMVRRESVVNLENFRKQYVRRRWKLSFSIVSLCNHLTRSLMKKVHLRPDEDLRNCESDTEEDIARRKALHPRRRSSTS", "procedure,_shortened": "as §1"}, "[1]": {"conditions": "read-out: Residual activity (%) Spautin-1 5aa"}, "[2]": {"conditions": "read-out: Residual activity (%) 5as"}, "[3]": {"conditions": "read-out: Residual activity (%) 5at"}, "[4]": {"conditions": "read-out: Residual activity (%) 5ay"}}, "note": "Like-named read-outs stand apart in the source and are kept apart here.", "data": [{"smiles": "Fc1ccc(CNc2ncnc3ccc(F)cc23)cc1", "note": "[5aa, 6-Fluoro-N-(4-fluorobenzyl)-4-Quinazolinamine]", "values": [{"measurement": "remaining activity at 10 µM", "setting": "HIPK2(h); [1]", "result": 109, "unit": "%"}, {"measurement": "remaining activity at 10 µM", "setting": "ALK6(h); [1]", "result": 94, "unit": "%"}, {"measurement": "remaining activity at 10 µM", "setting": "PRAK(h); [1]", "result": 107, "unit": "%"}, {"measurement": "remaining activity at 10 µM", "setting": "HIPK4(h); [1]", "result": 103, "unit": "%"}, {"measurement": "remaining activity at 10 µM", "setting": "SAPK3(h); [1]", "result": 106, "unit": "%"}, {"measurement": "remaining activity at 10 µM", "setting": "TGFBR1(h); [1]", "result": 87, "unit": "%"}, {"measurement": "remaining activity at 10 µM", "setting": "DAPK2(h); [1]", "result": 94, "unit": "%"}]}, {"smiles": "Fc1ccc(CCNc2ncnc3ccc(F)cc23)cc1", "note": "[5as, 6-Fluoro-N-[2-(4-Fluorophenyl)Ethyl]-4-Quinazolinamine]", "values": [{"measurement": "remaining activity at 10 µM", "setting": "HIPK2(h); [2]", "result": 96, "unit": "%"}, {"measurement": "remaining activity at 10 µM", "setting": "ALK6(h); [2]", "result": 86, "unit": "%"}, {"measurement": "remaining activity at 10 µM", "setting": "PRAK(h); [2]", "result": 108, "unit": "%"}, {"measurement": "remaining activity at 10 µM", "setting": "HIPK4(h); [2]", "result": 92, "unit": "%"}, {"measurement": "remaining activity at 10 µM", "setting": "SAPK3(h); [2]", "result": 114, "unit": "%"}, {"measurement": "remaining activity at 10 µM", "setting": "TGFBR1(h); [2]", "result": 97, "unit": "%"}, {"measurement": "remaining activity at 10 µM", "setting": "DAPK2(h); [2]", "result": 100, "unit": "%"}]}, {"smiles": "Fc1ccc2ncnc(NCCc3ccc(Cl)cc3)c2c1", "note": "[5at, N-[2-(4-Chlorophenyl)Ethyl]-6-Fluoro-4-Quinazolinamine]", "values": [{"measurement": "remaining activity at 10 µM", "setting": "HIPK2(h); [3]", "result": 94, "unit": "%"}, {"measurement": "remaining activity at 10 µM", "setting": "ALK6(h); [3]", "result": 92, "unit": "%"}, {"measurement": "remaining activity at 10 µM", "setting": "PRAK(h); [3]", "result": 91, "unit": "%"}, {"measurement": "remaining activity at 10 µM", "setting": "HIPK4(h); [3]", "result": 93, "unit": "%"}, {"measurement": "remaining activity at 10 µM", "setting": "SAPK3(h); [3]", "result": 87, "unit": "%"}, {"measurement": "remaining activity at 10 µM", "setting": "TGFBR1(h); [3]", "result": 86, "unit": "%"}, {"measurement": "remaining activity at 10 µM", "setting": "DAPK2(h); [3]", "result": 101, "unit": "%"}]}, {"smiles": "COc1ccc2ncnc(Nc3cccc(F)c3)c2c1", "note": "[5ay, N-(3-Fluorophenyl)-6-Methoxy-4-Quinazolinamine]", "values": [{"measurement": "remaining activity at 10 µM", "setting": "HIPK2(h); [4]", "result": 86, "unit": "%"}, {"measurement": "remaining activity at 10 µM", "setting": "ALK6(h); [4]", "result": 87, "unit": "%"}, {"measurement": "remaining activity at 10 µM", "setting": "PRAK(h); [4]", "result": 102, "unit": "%"}, {"measurement": "remaining activity at 10 µM", "setting": "HIPK4(h); [4]", "result": 42, "unit": "%"}, {"measurement": "remaining activity at 10 µM", "setting": "SAPK3(h); [4]", "result": 101, "unit": "%"}, {"measurement": "remaining activity at 10 µM", "setting": "TGFBR1(h); [4]", "result": 94, "unit": "%"}, {"measurement": "remaining activity at 10 µM", "setting": "DAPK2(h); [4]", "result": 91, "unit": "%"}]}]}
